In paper PMC10507807, “De novo design of a stapled peptide targeting SARS-CoV-2 spike protein receptor-binding domain” (RSC Medicinal Chemistry, 2023):
“Also recorded” adds a separate entry of the source. Starred links: 1 amine or outer side, 2 acyl side, 3 side chain; linkers in the order of their positions; H or OH if unused. Positions of bridges follow the written chain, without caps; N, C: chain ends. Non-standard residues stand in square brackets, D forms with d. Residues, ends and D or L forms follow the SMILES beside them. X1 = C[C@@](CC=[*:3])(N[*:1])C(=O)[*:2]

Assays:
[1] = system: SARS-CoV-2 alpha variant (B.1.1.7); format: cell-based
[2] = system: omicron (B.1.1.529) variant; format: binding, SARS-CoV-2
[3] = molecular target: recombinant SARS-CoV-2 spike B.1.617.2 (delta variant); format: binding

Molecule	inhibition of SARS-CoV-2 virus replication [1]	decrease of viral replication compared to PBS control ([1]; 48 h)	binding to omicron variant [2]	Kd ([3]; read-out: KD (dissociation constant))	dissociation constant of ACE2 with delta variant compared with wild-type spike [3]
CSCC[C@@H]1NC(=O)[C@H](CC(N)=O)NC(=O)[C@@H]2CC(=O)NCCCC[C@H](NC(=O)[C@H](Cc3c[nH]c4ccccc34)NC(=O)[C@@H](NC(=O)[C@H](CCCCN)NC(=O)[C@H](Cc3ccc(O)cc3)NC(=O)[C@H](CC(C)C)NC(=O)[C@H](Cc3c[nH]c4ccccc34)NC(=O)[C@H](CCC(=O)O)NC(=O)[C@@H](NC(=O)CNC(C)=O)[C@@H](C)O)C(C)C)C(=O)N[C@@H](C)C(=O)N[C@@H](Cc3ccccc3)C(=O)N[C@@](C)(C/C=C/C[C@@](C)(C(=O)O)NC1=O)C(=O)N2 [pep39] (Ac-GTEWLYKVWKAF[X1]DNM[X1]-OH; lactam 10-14; staple (E) 13-17)	strongly inhibits SARS-CoV-2 virus replication in Vero E6 cells; also recorded: SARS-CoV-2 viral replication was significantly inhibited	82.3%	not as promising as those observed with the original spike protein and the delta variant	4.1 ± 1.4 µM	
ACE2					more favorable for binding than the wild-type spike protein
